Values after ≈ are worked out from the molar mass of the structure shown. Where two headings read alike, the source gives them in different places.
Legend:
RSV A2 = assay: RSV antiviral CPE assay in HEp2 cells (MTT); type: cell-based, respiratory syncytial virus; conditions: human respiratory syncytial virus, HEp-2, 120 h; HEp2 cells, RSV A2 moi ~0.01, 5 days, CPE by MTT
Description: Compounds of the invention were tested for their antiviral activity against respiratory syncytial virus. Cytopathic effect (CPE) assays were performed essentially as described in the literature (see for example Watanabe et al, 1994, J. Virological Methods, 48:257). Serial dilutions of the test compounds were made in 96 well plates. HEp2 cells (1.0×10^4 cells/well) were infected with RSV at a low multiplicity of infection (e.g. RSV A2 at an moi of ˜0.01) and added to plates to assess antiviral activity. Uninfected HEp2 cells were used to assess compound cytotoxicity. Assays were incubated for 5 days at 37° C. in a 5% CO2 atmosphere. The extent of CPE was determined via metabolism of the vital dye 3-(4,5-dimethylthiaxol-2-yl)-2,5-diphenyltetrazolium bromide (MTT). MTT (1 mg/ml) was added to each well and plates incubated for 2 hours incubation at 37° C. Wells were aspirated, iso-propanol (200 μL) was added and absorbance values read at 540/650 nm. Compound concentrations that inhibited CPE by 50% (EC50) and developed cytotoxicity (CC50) were calculated using non-linear regression analysis. The CC50 values of the compounds tested were determined to be >5000 nM.

hERG ion channel = target: T1, hERG ion channel (Homo sapiens, UniProt Q12809); assay: hERG ion channel inhibition (ScreenPatch assay, IonWorks Quattro); type: cell-based; conditions: for IC50: CHO cells stably transfected with hERG; for inhibition at 5 min, 100 µM: human, CHO cells stably transfected with hERG cDNA
T1 construct: expressed in transfected cells; host or cells: CHO cells
T1 sequence (Q12809 whole entry): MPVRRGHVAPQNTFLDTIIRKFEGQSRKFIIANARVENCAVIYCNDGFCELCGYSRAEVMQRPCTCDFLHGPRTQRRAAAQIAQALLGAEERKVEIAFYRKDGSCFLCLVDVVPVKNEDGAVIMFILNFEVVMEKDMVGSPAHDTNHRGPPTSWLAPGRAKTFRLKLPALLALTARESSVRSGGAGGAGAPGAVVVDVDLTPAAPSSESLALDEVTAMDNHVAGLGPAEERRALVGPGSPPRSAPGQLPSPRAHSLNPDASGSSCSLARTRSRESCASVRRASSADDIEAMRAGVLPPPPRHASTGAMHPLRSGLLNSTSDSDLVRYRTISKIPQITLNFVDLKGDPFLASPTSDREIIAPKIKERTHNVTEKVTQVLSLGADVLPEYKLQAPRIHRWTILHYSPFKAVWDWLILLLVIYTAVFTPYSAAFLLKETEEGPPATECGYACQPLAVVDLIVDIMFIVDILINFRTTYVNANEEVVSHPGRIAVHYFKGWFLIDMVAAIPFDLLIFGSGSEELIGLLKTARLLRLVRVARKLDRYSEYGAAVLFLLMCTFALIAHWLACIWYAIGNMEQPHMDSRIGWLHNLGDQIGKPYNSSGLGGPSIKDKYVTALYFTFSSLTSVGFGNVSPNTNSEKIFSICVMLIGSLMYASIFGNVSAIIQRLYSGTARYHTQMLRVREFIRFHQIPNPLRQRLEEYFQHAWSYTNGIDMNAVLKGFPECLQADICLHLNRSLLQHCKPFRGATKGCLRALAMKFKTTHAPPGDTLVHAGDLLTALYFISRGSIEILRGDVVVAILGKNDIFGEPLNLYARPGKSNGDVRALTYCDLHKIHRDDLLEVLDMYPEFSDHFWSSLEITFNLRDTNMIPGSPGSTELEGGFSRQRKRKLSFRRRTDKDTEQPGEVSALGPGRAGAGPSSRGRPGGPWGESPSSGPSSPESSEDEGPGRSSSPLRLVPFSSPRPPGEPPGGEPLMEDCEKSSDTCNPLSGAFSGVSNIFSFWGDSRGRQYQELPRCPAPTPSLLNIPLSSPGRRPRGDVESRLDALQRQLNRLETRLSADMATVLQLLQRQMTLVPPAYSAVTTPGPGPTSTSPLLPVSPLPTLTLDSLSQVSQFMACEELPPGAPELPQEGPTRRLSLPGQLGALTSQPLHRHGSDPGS
Description: The effects of compounds of the invention on the on hERG ion channel can be evaluated using an IonWorks Quattro™ system essentially as described in the literature (see for example Bridgland-Tayor et al, 2006, J. Pharmacological and Toxicological Methods 54: 189).
Four compound concentrations were applied to naïve cells via steel needles of a 48-channel pipettor. Each application consisted of addition of 6 μL of 2× concentrated test compounds to the total of 12 μL of final volume of the extracellular well of the Population Patch Clamp™ (PPC) planar electrode. Duration of exposure to each test compound concentration was at least five minutes.
Intracellular solution was loaded into the intracellular compartment of the PPC planar electrode. Cell suspensions (CHO cells stably transfected with hERG cDNA) are pipetted into the wells of the PPC planar electrode. After establishment of a whole-cell configuration, membrane currents were recorded using patch clamp amplifier in the IonWorks Quattro™ system. Two recordings of the ion channel currents were performed (before and 5 minutes after test compound application). hERG current was measured using a pulse pattern with fixed amplitudes (conditioning prepulse: −80 mV for 25 ms; test pulse +40 mV for 80 ms) from a holding potential of 0 mV. hERG current was measured as a difference between the peak current at 1 ms after the test step to +40 mV and the steady state current at the end of the step to +40 mV.
Data acquisition and analyses was performed using the IonWorks Quattro™ system operation software. The decrease in current amplitude after test compound application was used to calculate the percent block relative to control. A compound is considered to have a low hERG inhibition when the hERG IC50 is >500 times higher than the RSV A2 EC50. The hERG IC50 of the compounds tested was >500 times higher than the corresponding RSV A2 EC50 values.

[1] = Aqueous solubility by laser nephelometry; type: physicochemical; conditions: kinetic from dmso stock, 1% DMSO, 30 minute incubation at 25° C., range 1.6-100
Description: Test compounds prepared in DMSO were screened in duplicate over a range of concentrations (1.6-100 ug/mL) in different aqueous media (for example pH2 or pH6.5 buffers which are relevant to the stomach and upper regions of the small intestine). Test compounds were serially diluted in 100% DMSO ranging from 10-0.16 mg/mL. These diluted compounds were then added to test plates (UV Star Griener 96 well plates) containing assay buffers with a further 1:100 dilution keeping a constant 1% DMSO concentration across the plate.

[2] = pH 2, simulated gastric fluid, pH2 buffer, read-out: Solubility at pH2
[3] = pH 6.5, aqueous buffer, pH6.5 buffer, read-out: Solubility at pH6.5

| EC50 (RSV A2) [µM] | solubility at 30 min [1, 2] [µg/mL] | solubility at 30 min [1, 3] [µg/mL] | SMILES | IC50 (hERG ion channel) [µM] | inhibition at 5 min, 100 µM (hERG ion channel) [%] |
| --- | --- | --- | --- | --- | --- |
| 0.0052 | 50 to 100 (≈ 122 to 245 µM) | > 100 | Cc1nocc1C(=O)N1CCN2C(=O)c3ncccc3CC12c1ccc(Cl)cc1 (stereo not shown) [Compound 2, 10a-(4-chlorophenyl)-1-[(3-methyl-1,2-oxazol-4-yl)carbonyl]-2,3,10,10a-tetrahydroimidazo[2,1-g][1,7]naphthyridin-5(1H)-one] | 99.2 | 50.2 |
| 0.0041 | 50 to 100 (≈ 122 to 245 µM) | > 100 | Cc1nocc1C(=O)N1CCN2C(=O)c3ncccc3C[C@]12c1ccc(Cl)cc1 (single isomer, unassigned) [Compound 2A] | 130 | 41.4 |

Source: patent publication US8796303B2, “Imidazo[2,1-G][1,7]naphthyridines for treating respiratory syncytial virus infections” (Biota Scientific Management Pty Ltd., priority 2010, dated 2014)
